In ChEMBL document CHEMBL4308841, “Synthesis, in vitro antiproliferative activity, and kinase inhibitory effects of pyrazole-containing diarylureas and diarylamides” (Eur J Med Chem, 2018):

Experiments:
Format in all cases: functional
RXF 393 = assay: Growth inhibition of human RXF393 cells assessed as cell growth at 10 uM incubated for 48 hrs by sulforhodamine B assay relative to control; conditions: RXF 393, 48 h, read-out: Activity
HCT-116 = assay: Growth inhibition of human HCT116 cells assessed as cell growth at 10 uM incubated for 48 hrs by sulforhodamine B assay relative to control; conditions: HCT-116, 48 h, read-out: Activity
HL-60(TB) = assay: Growth inhibition of human HL-60(TB) cells assessed as cell growth at 10 uM incubated for 48 hrs by sulforhodamine B assay relative to control; conditions: HL-60, 48 h, read-out: Activity
UACC-62 = assay: Growth inhibition of human UACC62 cells assessed as cell growth at 10 uM incubated for 48 hrs by sulforhodamine B assay relative to control; conditions: UACC-62, 48 h, read-out: Activity
KM12 = assay: Growth inhibition of human KM12 cells assessed as cell growth at 10 uM incubated for 48 hrs by sulforhodamine B assay relative to control; conditions: KM12, 48 h, read-out: Activity
OVCAR-5 = assay: Growth inhibition of human OVCAR5 cells assessed as cell growth at 10 uM incubated for 48 hrs by sulforhodamine B assay relative to control; conditions: OVCAR-5, 48 h, read-out: Activity
M14 = assay: Growth inhibition of human M14 cells assessed as cell growth at 10 uM incubated for 48 hrs by sulforhodamine B assay relative to control; conditions: M14, 48 h, read-out: Activity
BT-549 = assay: Growth inhibition of human BT549 cells assessed as cell growth at 10 uM incubated for 48 hrs by sulforhodamine B assay relative to control; conditions: BT-549, 48 h, read-out: Activity
K562 = assay: Growth inhibition of human K562 cells assessed as cell growth at 10 uM incubated for 48 hrs by sulforhodamine B assay relative to control; conditions: K562, 48 h, read-out: Activity
LOX IMVI = assay: Growth inhibition of human LOXIMVI cells assessed as cell growth at 10 uM incubated for 48 hrs by sulforhodamine B assay relative to control; conditions: read-out: Activity
SR = assay: Growth inhibition of human SR cells assessed as cell growth at 10 uM incubated for 48 hrs by sulforhodamine B assay relative to control; conditions: read-out: Activity
MDA-MB-435 = assay: Growth inhibition of human MDA-MB-435 cells assessed as cell growth at 10 uM incubated for 48 hrs by sulforhodamine B assay relative to control; conditions: MDA-MB-435, 48 h, read-out: Activity
HCC 2998 = assay: Growth inhibition of human HCC2998 cells assessed as cell growth at 10 uM incubated for 48 hrs by sulforhodamine B assay relative to control; conditions: HCC 2998, 48 h, read-out: Activity
OVCAR-4 = assay: Growth inhibition of human OVCAR4 cells assessed as cell growth at 10 uM incubated for 48 hrs by sulforhodamine B assay relative to control; conditions: OVCAR-4, 48 h, read-out: Activity
SNB-75 = assay: Growth inhibition of human SNB75 cells assessed as cell growth at 10 uM incubated for 48 hrs by sulforhodamine B assay relative to control; conditions: SNB-75, 48 h, read-out: Activity
SF-539 = assay: Growth inhibition of human SF539 cells assessed as cell growth at 10 uM incubated for 48 hrs by sulforhodamine B assay relative to control; conditions: SF-539, 48 h, read-out: Activity
ACHN = assay: Growth inhibition of human ACHN cells assessed as cell growth at 10 uM incubated for 48 hrs by sulforhodamine B assay relative to control; conditions: read-out: Activity
SK-OV-3 = assay: Growth inhibition of human SKOV3 cells assessed as cell growth at 10 uM incubated for 48 hrs by sulforhodamine B assay relative to control; conditions: SK-OV-3, 48 h, read-out: Activity
T47D = assay: Growth inhibition of human T47D cells assessed as cell growth at 10 uM incubated for 48 hrs by sulforhodamine B assay relative to control; conditions: read-out: Activity
CAKI-1 = assay: Growth inhibition of human Caki1 cells assessed as cell growth at 10 uM incubated for 48 hrs by sulforhodamine B assay relative to control; conditions: CAKI-1, 48 h, read-out: Activity
NCI-H226 = assay: Growth inhibition of human NCI-H226 cells assessed as cell growth at 10 uM incubated for 48 hrs by sulforhodamine B assay relative to control; conditions: NCI-H226, 48 h, read-out: Activity
U-251 = assay: Growth inhibition of human U251 cells assessed as cell growth at 10 uM incubated for 48 hrs by sulforhodamine B assay relative to control; conditions: U-251, 48 h, read-out: Activity
MDA-MB-231 = assay: Growth inhibition of human MDA-MB-231 cells assessed as cell growth at 10 uM incubated for 48 hrs by sulforhodamine B assay relative to control; conditions: MDA-MB-231, 48 h, read-out: Activity
SF-295 = assay: Growth inhibition of human SF295 cells assessed as cell growth at 10 uM incubated for 48 hrs by sulforhodamine B assay relative to control; conditions: SF-295, 48 h, read-out: Activity
IGROV-1 = assay: Growth inhibition of human IGROV1 cells assessed as cell growth at 10 uM incubated for 48 hrs by sulforhodamine B assay relative to control; conditions: IGROV-1, 48 h, read-out: Activity
SW-620 = assay: Growth inhibition of human SW620 cells assessed as cell growth at 10 uM incubated for 48 hrs by sulforhodamine B assay relative to control; conditions: SW-620, 48 h, read-out: Activity
Hs-578T = assay: Growth inhibition of human Hs578T cells assessed as cell growth at 10 uM incubated for 48 hrs by sulforhodamine B assay relative to control; conditions: read-out: Activity
SF-268 = assay: Growth inhibition of human SF268 cells assessed as cell growth at 10 uM incubated for 48 hrs by sulforhodamine B assay relative to control; conditions: SF-268, 48 h, read-out: Activity
MDA-MB-468 = assay: Growth inhibition of human MDA-MB-468 cells assessed as cell growth at 10 uM incubated for 48 hrs by sulforhodamine B assay relative to control; conditions: MDA-MB-468, 48 h, read-out: Activity
SNB-19 = assay: Growth inhibition of human SNB19 cells assessed as cell growth at 10 uM incubated for 48 hrs by sulforhodamine B assay relative to control; conditions: SNB-19, 48 h, read-out: Activity
OVCAR-3 = assay: Growth inhibition of human OVCAR3 cells assessed as cell growth at 10 uM incubated for 48 hrs by sulforhodamine B assay relative to control; conditions: OVCAR-3, 48 h, read-out: Activity
RPMI-8226 = assay: Growth inhibition of human RPMI8226 cells assessed as cell growth at 10 uM incubated for 48 hrs by sulforhodamine B assay relative to control; conditions: RPMI-8226, 48 h, read-out: Activity
NCI-H460 = assay: Growth inhibition of human NCI-H460 cells assessed as cell growth at 10 uM incubated for 48 hrs by sulforhodamine B assay relative to control; conditions: NCI-H460, 48 h, read-out: Activity

Compound: O=C(Nc1cccc(-n2cc(-c3ccncc3)c(-c3cc(O)cc(Cl)c3)n2)c1)Nc1ccc(Cl)c(C(F)(F)F)c1
- growth at 10 µM (RXF 393): -49.5%
- growth at 10 µM (HCT-116): 6.95%
- growth at 10 µM (HL-60(TB)): -26.9%
- growth at 10 µM (UACC-62): -1.44%
- growth at 10 µM (KM12): 15.1%
- growth at 10 µM (OVCAR-5): 59.3%
- growth at 10 µM (M14): -16.8%
- growth at 10 µM (BT-549): 47.6%
- growth at 10 µM (K562): 5.24%
- growth at 10 µM (LOX IMVI): 2.08%
- growth at 10 µM (SR): -30.6%
- growth at 10 µM (MDA-MB-435): 9.57%
- growth at 10 µM (HCC 2998): 34.3%
- growth at 10 µM (OVCAR-4): 31.6%
- growth at 10 µM (SNB-75): 24.1%
- growth at 10 µM (SF-539): 32.6%
- growth at 10 µM (ACHN): 21.3%
- growth at 10 µM (SK-OV-3): 63.1%
- growth at 10 µM (T47D): 25%
- growth at 10 µM (CAKI-1): 29.1%
- growth at 10 µM (NCI-H226): 41.2%
- growth at 10 µM (U-251): -26.5%
- growth at 10 µM (MDA-MB-231): -47.3%
- growth at 10 µM (SF-295): 14.3%
- growth at 10 µM (IGROV-1): 30.6%
- growth at 10 µM (SW-620): -33.6%
- growth at 10 µM (Hs-578T): 21.7%
- growth at 10 µM (SF-268): 42.1%
- growth at 10 µM (MDA-MB-468): 5.22%
- growth at 10 µM (SNB-19): 44.5%
- growth at 10 µM (OVCAR-3): 1.88%
- growth at 10 µM (RPMI-8226): 13.8%
- growth at 10 µM (NCI-H460): 3.75%

Compound: COc1cc(Cl)cc(-c2nn(-c3cccc(NC(=O)Nc4cc(C(F)(F)F)cc(C(F)(F)F)c4)c3)cc2-c2ccncc2)c1
- growth at 10 µM (RXF 393): -29.2%
- growth at 10 µM (HCT-116): -4.6%
- growth at 10 µM (HL-60(TB)): -20.1%
- growth at 10 µM (UACC-62): -21.2%
- growth at 10 µM (KM12): 12.2%
- growth at 10 µM (OVCAR-5): 21.6%
- growth at 10 µM (M14): 1.22%
- growth at 10 µM (BT-549): 6.61%
- growth at 10 µM (K562): 6.4%
- growth at 10 µM (LOX IMVI): -24%
- growth at 10 µM (SR): -37.9%
- growth at 10 µM (MDA-MB-435): -19.4%
- growth at 10 µM (HCC 2998): 9.5%
- growth at 10 µM (OVCAR-4): 11.8%
- growth at 10 µM (SNB-75): 11.3%
- growth at 10 µM (SF-539): -17.7%
- growth at 10 µM (ACHN): 10.3%
- growth at 10 µM (SK-OV-3): 6.84%
- growth at 10 µM (T47D): 6.56%
- growth at 10 µM (CAKI-1): 8.99%
- growth at 10 µM (NCI-H226): -5.97%
- growth at 10 µM (U-251): -58%
- growth at 10 µM (MDA-MB-231): -75%
- growth at 10 µM (SF-295): -43.2%
- growth at 10 µM (IGROV-1): 23%
- growth at 10 µM (SW-620): 7.18%
- growth at 10 µM (Hs-578T): 5.82%
- growth at 10 µM (SF-268): 14.2%
- growth at 10 µM (MDA-MB-468): -2.95%
- growth at 10 µM (SNB-19): 26.1%
- growth at 10 µM (OVCAR-3): -1.62%
- growth at 10 µM (RPMI-8226): -17.5%
- growth at 10 µM (NCI-H460): 0.24%
